Where two headings read alike, the source gives them in different places.
Legend:
134 cancer cell lines = experiment: Cell viability assay (ATPlite, 72 hours), IC50 on cancer cell line panel
[1] = molecular target: panel of 255 wild-type kinases (Homo sapiens, UniProt Q13177); experiment: Kinase panel profiling at 1 µmol/L (MSA or IMAP), percentage inhibition; type: biochemical; settings: PAK2; 1 µmol/L single concentration; read-out: %-inhibition, PAK2
[2] = molecular target: panel of 255 wild-type kinases (Homo sapiens, UniProt P45983); experiment: as above; type: biochemical; settings: kinase JNK1; 1 µmol/L single concentration; read-out: %-inhibition at 1 µmol/L, JNK1
[3] = molecular target: panel of 255 wild-type kinases (Homo sapiens, UniProt P50613); experiment: as above; type: biochemical; settings: CDK7/CycH/MAT1 kinase assay; 1 µmol/L single concentration; read-out: %-inhibition CDK7/CycH/MAT1
[4] = molecular target: panel of 255 wild-type kinases (Homo sapiens, UniProt Q9HBH9); experiment: as above; type: biochemical; settings: MNK2; 1 µmol/L single concentration; read-out: %-inhibition, MNK2
[5] = molecular target: panel of 255 wild-type kinases (Homo sapiens, UniProt P49760); experiment: as above; type: biochemical; settings: kinase CLK2; 1 µmol/L single concentration; read-out: %-inhibition at 1 µmol/L, CLK2
[6] = molecular target: panel of 255 wild-type kinases (Homo sapiens, UniProt O75582); experiment: as above; type: biochemical; settings: MSK1; 1 µmol/L single concentration; read-out: %-inhibition, MSK1
[7] = molecular target: panel of 255 wild-type kinases (Homo sapiens, UniProt Q96RG2); experiment: as above; type: biochemical; settings: PASK; 1 µmol/L single concentration; read-out: %-inhibition, PASK
[8] = molecular target: panel of 255 wild-type kinases (Homo sapiens, UniProt Q00526); experiment: as above; type: biochemical; settings: CDK3/CycE1 kinase assay; 1 µmol/L single concentration; read-out: %-inhibition CDK3/CycE1
[9] = molecular target: panel of 255 wild-type kinases (Homo sapiens, UniProt P22607); experiment: as above; type: biochemical; settings: kinase FGFR3; 1 µmol/L single concentration; read-out: %-inhibition at 1 µmol/L, FGFR3
AP-1060 (ETV6-NTRK3) = experiment: Cell viability assay; settings: read-out: IC50 in cell proliferation assay

With `CN1CCN(c2ccc(C(=O)Nc3n[nH]c4ccc(Cc5cc(F)cc(F)c5)cc34)c(NC3CCOCC3)c2)CC1` [entrectinib] the IC50 (134 cancer cell lines; Homo sapiens, NCI-H661, read-out: IC50 in cell proliferation assay, NCI-H661 cell line) was 4.03 µM, the IC50 (134 cancer cell lines; Homo sapiens, NCI-H716, read-out: IC50 in cell proliferation assay, cell line NCI-H716 (FGFR2-COL14A1)) was 1.46 µM and the IC50 (134 cancer cell lines; Homo sapiens, NCI-H1650, read-out: IC50 in cell proliferation assay, NCI-H1650 cell line (EGFR exon19del)) was 2.44 µM. It also gave an IC50 (134 cancer cell lines; Homo sapiens, NCI-H1975, read-out: IC50 in cell proliferation assay, NCI-H1975 cell line (EGFR p.L858R + p.T790M)) of 4.15 µM, an IC50 (134 cancer cell lines; Homo sapiens, NCI-H2228, read-out: IC50 in cell proliferation assay, NCI-H2228 cell line (EML4-ALK)) of 0.196 µM and an IC50 (134 cancer cell lines; Homo sapiens, OVCAR-3, read-out: IC50 in cell proliferation assay, cell line OVCAR-3) of 8.35 µM. The IC50 (134 cancer cell lines; Homo sapiens, PFSK-1, read-out: IC50 in cell proliferation assay, cell line PFSK-1) was 7.82 µM, the IC50 (134 cancer cell lines; Homo sapiens, RL95-2, read-out: IC50 in cell proliferation assay, cell line RL95-2 (EGFR p.A289V)) was 3.32 µM and the IC50 (134 cancer cell lines; Homo sapiens, RPMI-7951, read-out: IC50 in cell proliferation assay, cell line RPMI-7951 (BRAF p.V600E)) was 4.02 µM. The IC50 (134 cancer cell lines; Homo sapiens, RS4-11, read-out: IC50 in cell proliferation assay, cell line RS4;11) was 8.24 µM, the IC50 (134 cancer cell lines; Homo sapiens, Rec1, read-out: IC50 in cell proliferation assay, cell line REC-1) was 5.02 µM and the IC50 (134 cancer cell lines; Homo sapiens, SHP77, read-out: IC50 in cell proliferation assay, cell line SHP-77) was 12.7 µM. The IC50 (134 cancer cell lines; Homo sapiens, SK-BR-3, read-out: IC50 in cell proliferation assay, cell line SK-BR-3 (ERBB2 amplification)) was 11.1 µM, the IC50 (134 cancer cell lines; Homo sapiens, SK-N-AS, read-out: IC50 in cell proliferation assay, cell line SK-N-AS) was 5.34 µM and the IC50 (134 cancer cell lines; Homo sapiens, SK-N-FI, read-out: IC50 in cell proliferation assay, cell line SK-N-FI) was 4.06 µM. It also gave an IC50 (134 cancer cell lines; Homo sapiens, SK-N-MC, read-out: IC50 in cell proliferation assay, cell line SK-N-MC) of 4.62 µM, an IC50 (134 cancer cell lines; Homo sapiens, SK-N-SH, read-out: IC50 in cell proliferation assay, cell line SK-N-SH (ALK p.F1174L)) of 2.8 µM and an IC50 (134 cancer cell lines; Homo sapiens, SNU-5, read-out: IC50 in cell proliferation assay, cell line SNU-5 (MET amplification)) of 9.58 µM. For the same compound, the IC50 (134 cancer cell lines; Homo sapiens, SNU-16, read-out: IC50 in cell proliferation assay, cell line SNU-16 (FGFR2 amplification)) was 2.13 µM, the IC50 (134 cancer cell lines; Homo sapiens, SNU-C2B, read-out: IC50 in cell proliferation assay, cell line SNU-C2B (EGFR p.R165Q)) was 8.12 µM and the IC50 (134 cancer cell lines; Homo sapiens, SU-DHL-1, read-out: IC50 in cell proliferation assay, cell line SU-DHL-1 (NPM1-ALK)) was 0.607 µM. For the same compound, the IC50 (134 cancer cell lines; Homo sapiens, SU-DHL-6, read-out: IC50 in cell proliferation assay, cell line SU-DHL-6) was 7.74 µM, the IC50 (134 cancer cell lines; Homo sapiens, SUP-T1, read-out: IC50 in cell proliferation assay, cell line SUP-T1) was 11 µM and the IC50 (134 cancer cell lines; Homo sapiens, SW48, read-out: IC50 in cell proliferation assay, cell line SW48 (EGFR p.G719S)) was 5.31 µM. It also gave an IC50 (134 cancer cell lines; Homo sapiens, SW480, read-out: IC50 in cell proliferation assay, cell line SW480) of 6.93 µM, an IC50 (134 cancer cell lines; Homo sapiens, SW626, read-out: IC50 in cell proliferation assay, cell line SW626) of 7.38 µM and an IC50 (134 cancer cell lines; Homo sapiens, SW780, read-out: IC50 in cell proliferation assay, cell line SW780 (FGFR3-BAIAP2L1)) of 2.85 µM. It also gave an IC50 (134 cancer cell lines; Homo sapiens, SW837, read-out: IC50 in cell proliferation assay, cell line SW837) of 8.38 µM, an IC50 (134 cancer cell lines; Homo sapiens, SW872, read-out: IC50 in cell proliferation assay, cell line SW872 (BRAF p.V600E)) of 6.09 µM and an IC50 (134 cancer cell lines; Homo sapiens, SW900, read-out: IC50 in cell proliferation assay, cell line SW900) of 6.64 µM. For the same compound, the IC50 (134 cancer cell lines; Homo sapiens, SW948, read-out: IC50 in cell proliferation assay, cell line SW948) was 9.44 µM, the IC50 (134 cancer cell lines; Homo sapiens, SW982, read-out: IC50 in cell proliferation assay, cell line SW982 (BRAF p.V600E)) was 5.31 µM and the IC50 (134 cancer cell lines; Homo sapiens, SW-620, read-out: IC50 in cell proliferation assay, cell line SW620) was 6.33 µM. The IC50 (134 cancer cell lines; Homo sapiens, T98G, read-out: IC50 in cell proliferation assay, cell line T98G) was 5.59 µM, the IC50 (134 cancer cell lines; Homo sapiens, TCC-SUP, read-out: IC50 in cell proliferation assay, cell line TCCSUP) was 6.42 µM and the IC50 (134 cancer cell lines; Homo sapiens, THP-1, read-out: IC50 in cell proliferation assay, cell line THP-1) was 12.9 µM. The IC50 (134 cancer cell lines; Homo sapiens, U2OS, read-out: IC50 in cell proliferation assay, cell line U2OS) was 4.45 µM, the IC50 (134 cancer cell lines; Homo sapiens, U-87 MG, read-out: IC50 in cell proliferation assay, cell line U-87MG ATCC) was 7.08 µM and the IC50 (134 cancer cell lines; Homo sapiens, U-118-MG, read-out: IC50 in cell proliferation assay, cell line U-118MG) was 6.88 µM. It also gave an IC50 (134 cancer cell lines; Homo sapiens, UMUC3, read-out: IC50 in cell proliferation assay, cell line UM-UC-3) of 6.87 µM, an IC50 (134 cancer cell lines; Hs766T, read-out: IC50 in cell proliferation assay, Hs 766T cell line) of 7.08 µM and an IC50 (134 cancer cell lines; L-82, read-out: IC50 in cell proliferation assay, L-82 cell line (NPM1-ALK)) of 0.125 µM. For the same compound, the IC50 (134 cancer cell lines; Rh30, read-out: IC50 in cell proliferation assay, cell line Rh30) was 4.64 µM, the IC50 (134 cancer cell lines; read-out: IC50 in cell proliferation assay, 11-18 cell line (EGFR p.L858R)) was 4.17 µM and the IC50 (134 cancer cell lines; read-out: IC50 in cell proliferation assay, Hs 852.T cell line) was 4.09 µM. It also gave an IC50 (134 cancer cell lines; read-out: IC50 in cell proliferation assay, JAR cell line) of 5.04 µM, an IC50 (134 cancer cell lines; read-out: IC50 in cell proliferation assay, cell line 5637) of 5.56 µM and an IC50 (134 cancer cell lines; read-out: IC50 in cell proliferation assay, cell line A-388) of 10.3 µM. The IC50 (134 cancer cell lines; read-out: IC50 in cell proliferation assay, cell line DB) was 10.5 µM, the IC50 (134 cancer cell lines; read-out: IC50 in cell proliferation assay, cell line DEL (NPM1-ALK)) was 0.216 µM and the IC50 (134 cancer cell lines; read-out: IC50 in cell proliferation assay, cell line ES-2 (BRAF p.V600E)) was 4.86 µM. The IC50 (134 cancer cell lines; read-out: IC50 in cell proliferation assay, cell line PA-1) was 3.03 µM, the IC50 (134 cancer cell lines; read-out: IC50 in cell proliferation assay, cell line PC-3) was 11 µM and the IC50 (134 cancer cell lines; read-out: IC50 in cell proliferation assay, cell line RD) was 5.09 µM. It also gave an IC50 (134 cancer cell lines; read-out: IC50 in cell proliferation assay, cell line RKO (BRAF p.V600E)) of 4.68 µM, an IC50 (134 cancer cell lines; read-out: IC50 in cell proliferation assay, cell line RL) of 10.9 µM and an IC50 (134 cancer cell lines; read-out: IC50 in cell proliferation assay, cell line RT-4 (FGFR3-TACC3)) of 2.94 µM. It also gave an IC50 (134 cancer cell lines; read-out: IC50 in cell proliferation assay, cell line SR (NPM1-ALK)) of 0.72 µM, an IC50 (134 cancer cell lines; read-out: IC50 in cell proliferation assay, cell line T24) of 7.12 µM and an IC50 (134 cancer cell lines; read-out: IC50 in cell proliferation assay, cell line TT (RET p.C634W)) of 9.26 µM. For the same compound, the IC50 (134 cancer cell lines; read-out: IC50 in cell proliferation assay, cell line VA-ES-BJ) was 6.41 µM, the inhibition at 1 µM [1] was -10% and the inhibition at 1 µM [2] was -0.262%. The inhibition at 1 µM [3] was 27%, the inhibition at 1 µM [4] was 0.904% and the inhibition at 1 µM [5] was 28%. The inhibition at 1 µM [6] was 0.468%, the inhibition at 1 µM [7] was 1.19% and the inhibition at 1 µM [8] was 5.63%. It also gave an inhibition at 1 µM [9] of 90% and an IC50 (AP-1060 (ETV6-NTRK3)) of 0.035 µM.

— publication PMC9516332 (Frontiers in Oncology, 2022)
